Where a SMILES comes first, the peptide text is derived from it. Bridges are numbered along the chain shown (N, C = ends).
Target: T1, gp120 (LAV) (Human immunodeficiency virus type 1 group M subtype B, UniProt P03377)
T1 construct: Glycosylated HIV-1 gp120 (LAV) envelope glycoprotein; purchased Protein Sciences Corporation, Meriden, Conn; 2003-LAV
Assay: Surface plasmon resonance binding
Set-up: species or system HIV-1
Description: FIG. 20. Binding to gp120. These binding isotherms were measured by surface plasmon resonance, using a biosensor chip that contained immobilized, recombinant gp120. Various concentrations of RC-100 and RC-101 (0.05 to 0.5 μg/ml) flowed over the biosensor chip between minutes 1 to 4, to allow the “on rates” to be measured. At 4 minutes, the peptide-containing solutions were replaced by peptide-free medium, to ascertain the “off-rates.”
Surface plasmon resonance. Recombinant human soluble CD4 (full-length 45 kDa glycosylated ectodomain) was produced by ExpresSF+S. frugiperda cells in serum-free medium (Protein Sciences Corporation, Meriden, Conn.). Glycosylated HIV-1 gp120 (LAV) envelope glycoprotein (Catalog No. 2003-LAV) was purchased from the same source. Recombinant HIV-1BaL was obtained through the AIDS Research and Reference Reagent Program, Division of AIDS, National Institute of Allergy and Infectious Disease, NIH.
Surface plasmon resonance (SPR) experiments were done with a Biacore 2000 system (Biacore, Inc., Piscataway, N.J.). The running buffer (pH 7.4) contained 10 mM HEPES, 150 mM NaCl, 3 mM EDTA and 0.005% polysorbate 20. The immobilized proteins (gp120-LAV and CD4) were dissolved at 20 μg/ml in 10 mM sodium acetate, pH 5.0 and immobilized on a Biacore CM5 sensor chip using the amine coupling method. The chip was activated by mixing 400 mM EDC (N-ethyl-N-(3-dimethylaminopropyl)-carbodiimide hydrochloride) and 100 mM N-hydroxysuccinimide. An immobilization level of −6000 response units (RU) was attained for each bound protein. Residual reactive groups on the chip surface were blocked using 1.0 Methanolamine/HCl, pH 8.5.
The flow cell chip used as a control lacked immobilized protein but was otherwise treated as above. Signals were corrected for nonspecific binding by subtracting the control signal. To regenerate the chip surface, bound ligands were removed with 10 mM HCl. Data were analyzed with BIAevaluation 3.1 software. Curve fitting was done with an assumption of 1:1 binding.
We previously reported that the protection against HIV-1 afforded by retrocyclin-1 and its analogs was correlated to their binding to gp120 and CD4. In those experiments, biosensor chips containing immobilized gp120 or CD4 were perfused with a 1 μg/ml solution of the peptides, and binding was measured by surface plasmon resonance. When we compared binding by retrocyclin-1 and RC-101 in exactly the same manner, we saw very little difference between them. FIG. 20 compares the binding of lower concentrations of these peptides, ranging from 0.05 to 0.5 μg/ml, to immobilized gp120 LAV. From these binding isotherms, and from similar studies performed with biosensor chips containing immobilized gp120 BaL or CD4, the binding constants shown in Table 7 were obtained. […]

SMILES | koff [s⁻¹] | kon [M⁻¹ s⁻¹]
CC[C@H](C)[C@@H]1NC(=O)CNC(=O)[C@H](CCCNC(=N)N)NC(=O)CNC(=O)[C@@H]2CSSC[C@H](NC1=O)C(=O)N[C@@H](CCCNC(=N)N)C(=O)N[C@H]1CSSC[C@H](NC(=O)[C@H](CCCNC(=N)N)NC(=O)[C@@H]3CSSC[C@H](NC(=O)[C@H]([C@@H](C)CC)NC1=O)C(=O)NCC(=O)N[C@@H](CCCNC(=N)N)C(=O)NCC(=O)N[C@@H]([C@@H](C)CC)C(=O)N3)C(=O)N[C@@H]([C@@H](C)CC)C(=O)N2 [RC-100, Retrocyclin] (cyclo(GICRCICGRGICRCICGR); disulfide 3-16, 5-14, 7-12) | 0.00296 | 80300
CC[C@H](C)[C@@H]1NC(=O)CNC(=O)[C@H](CCCCN)NC(=O)CNC(=O)[C@@H]2CSSC[C@H](NC1=O)C(=O)N[C@@H](CCCNC(=N)N)C(=O)N[C@H]1CSSC[C@H](NC(=O)[C@H](CCCNC(=N)N)NC(=O)[C@@H]3CSSC[C@H](NC(=O)[C@H]([C@@H](C)CC)NC1=O)C(=O)NCC(=O)N[C@@H](CCCNC(=N)N)C(=O)NCC(=O)N[C@@H]([C@@H](C)CC)C(=O)N3)C(=O)N[C@@H]([C@@H](C)CC)C(=O)N2 [RC-101, R9K-Retrocyclin] | 0.00304 | 97200
